Experiments:
[1] = test system: LN229 xenografts; experiment: Subcutaneous LN229 xenografts in SCID mice; format: in vivo
From the text: Protein levels were quantified by Western analyses (inset; representative immunoblots of YAP and actin levels from tumors from the indicated tumor treatment groups), and normalized to actin levels of harvested tumors from mice with the corresponding treatments as indicated and described in Materials and Methods. […] Scale bar, 20 μm. […] Data are expressed as the number of positive apoptotic bodies (brown, indicated by arrows) divided by high power field (hpf; 10-12 hpf/tumor). Values are means+S.D., *, P<0.05. Scale bar, 20 μm.
Animal studies. Xenografts of LN229 cells were performed in 4-6-week-old female C.B.-17-scid (Taconic) mice as previously described (Holmes B, et al. (2016) J Biol Chem 291: 14146-14159). Tumors were harvested at autopsy for immunoblot analysis. Sections of paraffin-embedded tumors on slides were processed for immunohistochemistry as previously described (Benavides-Serrato A, et al. (2017) PLoS One 12: e0176599). For GEMM studies, double transgenic GFAP-EGFRvIII; GFAP-Cre/Rictor^loxP/loxP mice as previously described were used (Bashir T, et al. (2012) PLoS One 7: e47741). Determinations of blood plasma and brain concentrations of NSC682769 following IV administration were performed in C57/BL6 mice.
NSC682769 inhibits GBM tumor growth in xenografted mice. To examine the effects of NSC682769 in vivo, the ability of the compound to inhibit the growth of LN229 xenografted tumors implanted subcutaneously in SCID mice was tested. Following implantation, when tumors reached ˜200 mm^3, mice were randomized into treatment groups receiving vehicle, 5 mg/kg/d and 20 mg/kg/d of NSC682769. […] The relative expression level of YAP was reduced in harvested tumors from NSC682769 treated animals (5 mg/kg; 20 mg/kg) as compared to vehicle treated animals consistent with the observed effects of the inhibitor in vitro (FIG. 5D; see also FIG. 3). Expression of the YAP-dependent genes CTGF and Cyr61 was reduced in inhibitor treated groups relative to vehicle (FIG. 5E).

[2] = test system: YAP localization; experiment: YAP cytoplasmic/nuclear localization (cell fractionation and immunofluorescence); format: cell-based, human; settings: 50 nM, 6 h
Protocol: Levels of total YAP were determined via ELISA. […] Immunoprecipitates were immunoblotted for the indicated proteins. […] Cells were treated with the indicated concentrations of inhibitor for 18 h and mRNA extracted for real time RT-PCR analyses. Measurements were performed in quadruplicate and means and+S.D. are shown. […] […] Cytoplasmic versus nuclear material was subsequently immunoblotted for the indicated proteins. […] Values in top right corner of panels correspond to the percentage of nuclear localized YAP. Cells were grown on coverslips and treated with NSC682769. Cells were permeabilized and stained using primary antibody to YAP1 and FITC-conjugated secondary. Nuclei were stained with DAPI. Scale bar, 20 μm.
Surface plasmon resonance (SPR), ELISA, YAP-TEAD reporter activity, cellular fractionation, and immunofluorescence analyses. SPR experiments were carried out on a Nicoya OpenSPR™ instrument using immobilized YAP on a carboxyl-coated sensor. Binding was observed as the change in response units (RU) as analyte was injected at a flow rate of 10 μl/min at 25° C. TraceDrawer™ was used for kinetic analyses. The PathScan® total-YAP ELISA kit was obtained from Cell Signaling and used according to the manufacturer's instructions. YAP-TEAD reporter activity was determined as previously described (Kim N G, Gumbiner B M (2015) J Cell Biol 210: 503-515). HOP-flash contains multiple copies of wild-type TEAD-binding sites with a minimal promoter upstream of a luciferase reporter gene. Luciferase activity was measured via a luciferase assay system (Promega). Nuclear-cytoplasmic fractionation was performed according to Dignam et al. (Dignam J D, et al. (1983) Nucleic Acids Res 11: 1475-1489). Briefly, the buffers used were kept on ice and centrifugations were done at 4° C. with soft braking. After a single wash with PBS, cells were scraped with PBS (containing 1 mM DTT and 1× protease inhibitor) and harvested by centrifugation at 1000×g for 15 min. […] Cell lysis was monitored by trypan blue staining. […]

COc1ccc(-c2cc(-c3ccccc3)nc3c2CC(=O)Nc2ccccc2-3)cc1OC [NSC682769]
Tumor growth delay ([1]; 5 mg/kg/d): 11 days
Tumor growth inhibition at end of dosing period ([1]; 5 mg/kg/d): 66%
Relative expression level of YAP in harvested tumors ([1]; 5 mg/kg, 20 mg/kg versus vehicle): reduced
Tumor growth delay ([1]; 20 mg/kg/d): 16 days
Tumor growth inhibition at end of dosing period ([1]; 20 mg/kg/d): 83%
Overall survival relative to vehicle ([1]; 5 and 20 mg/kg/d): markedly extended
Harvested tumor weights ([1]; both dosing regimens versus vehicle): significant reduction
Apoptosis by TUNEL staining of tumors ([1]; both dosing regimens, day 12): enhancement of apoptotic death
Ki-67 staining of harvested tumors ([1]; day 12 after start of treatment): reduction
Expression of CTGF and Cyr61 in harvested xenografts ([1]; treated groups versus vehicle): reduced
Relative amount of nuclear YAP (immunofluorescence) ([2]; GBM39 cells, untreated 53%): 19%
Relative amount of nuclear YAP (immunofluorescence) ([2]; LN229 cells, untreated 67%): 26%
Nuclear versus cytoplasmic YAP by cell fractionation ([2]; LN229 or GBM39 cells): reduction of nuclear YAP and a concomitant accumulation of cytoplasmic YAP

Reference: patent US20240108634A1, “COMPOSITIONS AND METHODS FOR INHIBITING YAP” (The United States Government as represented by the …, priority 2021, published 2024)
